What was measured:
[1] = tested on: human myeloid leukemia U937 cell line; assay: Cell viability of tumor cells exposed to photosensitizer and electromagnetic radiation; type: cell-based; conditions: for viability at 13 µM: 13 μM compound; for viability at 25 µM: 25 μM compound; for viability at 6 µM: 6 μM compound
Method: A general procedure is carried out for measuring cell viability upon exposure of tumor cells to the fused ring diaza compound of Formula (FX33) and electromagnetic radiation. The compound of Formula (FX33) has an absorption maxima (λmax) of 334 nm. The cell viability measurements are carried out using human myeloid leukemia U937 cell line by the standard WST-1 assay. In this procedure, U397 Leukemia cells (0.5×10^6) are plated in standard T-25 cell culture flasks, and are exposed to four controls and a series of test conditions corresponding to a range of fused ring diaza compound concentrations, summarized in Table 1.
The compound of formula (FX33) is dissolved in 20 to 30% DMSO at an initial concentration of 2-4 mM and serially diluted to the final desired value such that the amount of DMSO exposed to the cells is below 0.5%. The cells are incubated at 37° C. with various concentrations of the fused ring diaza compound photosensitizer for about 30 minutes prior to exposure to electromagnetic radiation. […] It should be noted that in the present study, the electromagnetic radiation source is not optimized with respect to power and wavelength. The viability of cells is assessed after 24 hours following exposure to electromagnetic radiation. The electromagnetic radiation source is a B-100SP High Intensity Lamp from UVP. Once exposure is complete, cells are processed to determine percent viability using Hank's Balanced Salt Solution (HBSS), Trypan blue stain, and a hemacytometer to count live and dead cells. The number of viable cells is determined and percent viability is determined using:
FIG. 4 provides cell viability results for test conditions wherein cells are exposed to electromagnetic radiation and the compound of formula (FX33) for concentrations of 6 μM, 13 μM and 25 μM. […] Cells are incubated in the absence of the compound of formula (FX33) (0 μM) and with the compound of formula (FX33) at concentrations of 6 μM, 13 μM and 25 μM. The cells are exposed to electromagnetic radiation from a B-100SP High Intensity Lamp for 0, 5, 10, and 20 minutes. […] In the presence of 13 μM of the diaza compound of formula (FX33), cells have about 94% viability with electromagnetic radiation exposure for 5 minutes, about 95% viability with electromagnetic radiation exposure for 10 minutes, and about 58% viability with electromagnetic radiation exposure for 20 minutes. In the presence of 25 μM of the compound of formula (FX33), cells have about 86% viability with electromagnetic radiation exposure for 5 minutes, about 30% viability with electromagnetic radiation exposure for 10 minutes, and about 8% viability with electromagnetic radiation exposure for 20 minutes.

[2] = Absorption maximum; type: physicochemical
[3] = Homo sapiens, U-937, 5 min, electromagnetic radiation exposure 5 minutes
[4] = Homo sapiens, U-937, 10 min, electromagnetic radiation exposure 10 minutes
[5] = Homo sapiens, U-937, 20 min, electromagnetic radiation exposure 20 minutes

- absorption maxima (λmax) [2]: 334 nm
SMILES: COc1cc2c3c(cc(=O)oc3c1OC)NN=C2 [formula (FX33)]
- effect on cell viability (in words) ([1]; 6, 13 and 25 μM, exposure 0, 5, 10 and 20 minutes): concentration-dependent and electromagnetic radiation exposure time-dependent decreases in cell viability
- viability at 13 µM [1, 3]: ~94%
- viability at 25 µM [1, 3]: ~86%
- viability at 6 µM [1, 4]: 100%
- viability at 13 µM [1, 4]: ~95%
- viability at 25 µM [1, 4]: ~30%
- viability at 6 µM [1, 5]: ~92%
- viability at 13 µM [1, 5]: ~58%
- viability at 25 µM [1, 5]: ~8%
- IC50 ([1]; Homo sapiens, U-937, 20 min, cells exposed to electromagnetic radiation and photosensitizer for 20 minutes, read-out: VC50/20 (concentration at which 50% decrease in cell viability is observed)): 5.25 µM
- viability at 6 µM ([1]; Homo sapiens, U-937, electromagnetic radiation exposure 5 minutes (B-100SP lamp, 325-425 nm), viability assessed after 24 hours): 100%

Source: patent US20110264026A1, “Azo Derivatives and Uses Thereof in Phototherapy” (priority 2008, published 2011)
